Laboratory results from patent US7288556B2, “Antiproliferative 1,2,3-thiadiazole compounds” (QLT Inc., priority 2000, dated 2007).
Marks after values point to notes of the source that are not given here.

Columns and labels:
[1] = test system: HUVEC; experiment: HUVEC endothelial proliferation in response to test compounds (MTS); format: cell-based
Protocol: (§1) Endothelial cell cultures: Cell lines used include HUVEC, EJG and MS1 and are routinely passaged 1 to 2 times weekly. Endothelial growth media (EGM) consists of Endothelial Base Media plus all supplements (Clonetics). For testing of compounds, endothelial cells were plated on 1% gelatin-coated plates. Prior to plating, gelatin solution was added to the plates for at least 10 minutes before plating, but excess solution removed immediately before adding cells. Sterile gelatin solution consists of 1% gelatin in dH2O that has been autoclaved. Endothelial cells form a characteristic cobblestone monolayer upon confluency. Typically, a T-75 plate contains 1 million microvascular cells upon confluency.
a. HUVEC Endothelial Proliferation in Response to Test compounds: HUVEC were cultured in 96-well plates and treated with a dilution series of test compounds for potential angiogenesis-related effects.
Day 0—Endothelium are plated at 5000 cells/well and at 10,000 cells/well.
Day1—Treatments are added in EGM culture medium in an appropriate dilution series (n=6 or 12). Controls included EGM alone, serum free medium (SFM), and EGM plus 0.5% DMSO.
Day 1-2, MTS/PMS solutions were added and plates read at 4 and 24 h after treatment.

[2] = test system: HUVEC; experiment: 3H-Thymidine incorporation proliferation assay; format: cell-based; conditions: 10 μm
Protocol: as §1
b. Thymidine incorporation proliferation assay: Cells were plated out and grown overnight. The next day the test compound or controls were added to the plates, along with diluted ^3H-thymidine added to a final concentration of 0.1 μCi/well, and the plates were incubated. After 24 h, the plates were spun down 1000 g for 10 min (for non-adherent cells) before removing the PBS. A volume of 120 μl of the scintillant fluid was added to each of the wells, and the plate was read.

[3] = test system: IEC-18 Epithelium; experiment: Matrigel invasion assay, IEC-18; format: cell-based; conditions: 10 μm, 24 h, control 16.8
Protocol: (§2) c. Invasion Assays: Invasion of cells into surrounding tissue is a hallmark property of tissue remodeling. Tissue remodeling occurs during most pathological progression, including tumor progression, angiogenesis and during normal processes such as wound healing. The following invasion assays were performed using Biocoat® Cell Environments™ Matrigel Invasion Chamber 24-Well Plate Size (Becton Dickinson). The invasion chambers can be used to assess the ability of a cell to traverse an extracellular matrix under a variety of conditions. The chambers consist of a 24 well plate and […] that can be suspended in each well and act as an upper chamber. Cells place in the upper chamber insert must invade through a matrix in order to enter the lower chamber.
(§3) Cells were pre-labeled with ^3H-thymidine overnight. Typically, 5×10^5 cells were cultured overnight in 5 mls of serum-containing media spiked with 200 μl of thymidine stock solution. Cells were scraped off of the flask substratum and gently pipetted up and down to achieve single cell suspension in the medium. […]
(§4) After an incubation period of 24 h, media was carefully removed from the upper chamber insert and saved for scintillation counting. […] The relative amount of cell invasion was calculated by adding counts from the filters and lower chambers and dividing this sum by the total counts added initially to the upper chambers. […]

[4] = test system: IEC-18-13 Epithelium; experiment: Matrigel invasion assay, IEC-18-13; format: cell-based; conditions: 10 μm, 24 h, control 34.9
Protocol: as §2, §3, §4

[5] = test system: chick chorioallantoic membrane; experiment: Chick chorioallantoic membrane (CAM) developmental angiogenesis assay; format: in vivo, chicken
Protocol: e. Chick chorioallantoic membrane assay (CAM assay): was performed on fertilized chicken eggs and used as a test for angiogenesis inhibition.
Approximately 4 dozen fertilized eggs were sprayed with 70% ETOH and placed in a 180 egg incubator (GQF Sportsman incubator). The eggs were incubated “rounded-side down” and were fully rotated along the vertical axis every 30 minutes at 37° C. under 90% relative humidity.
After 4 days, the eggs were placed upside down (round side up) for 5-10 minutes, before a round hole approximately 3 centimeters in diameter was created above the pointed end or “air hole” of the egg using sterile blunt-ended forceps (“deshelling”). The inner membrane was also removed, and the embryo was visible through this opening. A small portion of the outer membrane was then carefully removed using fine-tipped forceps in order to expose the CAM. Sterile Parafilm was placed over the de-shelled opening to create an airtight seal. The eggs were returned to the incubator (with no rotation) for 2 days.
Viable eggs were then treated with control and inhibitor compounds. Gelfoam™ gelatin sterile sponge (Upjohn) or 1-2 mm discs of methylcellulose saturated with physiological saline, buffer or an appropriate dilution of the compounds under investigation. The Gelfoam™ fragments of methylcellulose discs were added directly to the surface of the developing CAM. Care was taken not to add the treatment directly over a large vessel. The shells were marked in 3 places to aid in stereotactic localization of the treatment sponge or disc. An average of 6 eggs were included for each experimental condition. The treated eggs were returned to the incubator for 2 days.
The eggs were then assessed for blood vessel growth inhibition. Photomicrographs for records and visual examination were made using a Nikon dissecting microscope with an attached Nikon 35-mm camera body.

[6] = test system: Lewis Lung cell line; conditions: cells inoculated subcutaneously in rear flank of mice, compound i.p. daily
Protocol: Anti-tumour efficacy and dose response in allograft and xenograft models. Cell lines were selected from an in vitro assay based on ILK expression, and growth curves characterized in vivo. Preliminary tests were performed with the Lewis Lung cell line in a murine allograft tumor model. In parallel, human xenograft tumor lines were characterized.
Cells were inoculated subcutaneously in the rear flank of mice, and the test compound was administered i.p. daily. Tumors were measured and the size calculated, with the objective being a decrease in tumor growth compared to the controls.

[7] = HUVEC in log phase growth, 5 μm
[8] = HUVEC in log phase growth, 10 μm
[9] = HUVEC in log phase growth, 20 μm

Q: Which results are given for `NC(=O)c1nnsc1Nc1ccccc1` [KP-15807, 5-Phenylamino-[1,2,3]thiadiazole-4-carboxylicacid amide]?
A: MTS Relative Absorbance 4 h [1, 7]: 1.26 +/− 0.17; MTS Relative Absorbance 24 h [1, 7]: 1.22 +/− 0.09; MTS Relative Absorbance 4 h [1, 8]: 1.31 +/− 0.09; MTS Relative Absorbance 24 h [1, 8]: 1.24 +/− 0.04; MTS Relative Absorbance 4 h [1, 9]: 1.25 +/− 0.03; MTS Relative Absorbance 24 h [1, 9]: 1.21 +/− 0.05; MTS Relative Absorbance 4 h ([1]; HUVEC post-confluent, 5 μm): 2.06 +/− 0.20; MTS Relative Absorbance 24 h ([1]; HUVEC post-confluent, 5 μm): 1.55 +/− 0.17; MTS Relative Absorbance 4 h ([1]; HUVEC post-confluent, 10 μm): 2.30 +/− 0.05; MTS Relative Absorbance 24 h ([1]; HUVEC post-confluent, 10 μm): 1.62 +/− 0.12; MTS Relative Absorbance 4 h ([1]; HUVEC post-confluent, 20 μm): 2.52 +/− 0.05; MTS Relative Absorbance 24 h ([1]; HUVEC post-confluent, 20 μm): 1.71 +/− 0.02; 3H-Thymidine incorporation at 24 h ([2]; HUVEC in log phase growth): 746 +/− 200; 3H-Thymidine incorporation at 48 h ([2]; HUVEC in log phase growth): 1251 +/− 117; 3H-Thymidine incorporation at 24 h ([2]; HUVEC post-confluent): 571 +/− 86; 3H-Thymidine incorporation at 48 h ([2]; HUVEC post-confluent): 452 +/− 71*; % Cell Invasion [3]: 9%; % Cell Invasion [4]: 8%; % Inhibition ([5]; 5 μm): 60%; % Inhibition ([5]; 10 μm): 75%; % Inhibition ([5]; 20 μm): 85%; tumor growth compared to control [6]: succeeded in reducing tumor growth compared to control; melting point: 195 to 197 °C
